Earlier results, collected in US8758740B2, “Composition for promoting ketone body production” (Earthus, Inc, priority 2007, dated 2014).
Where two headings read alike, the source gives them in different places.

Legend:
[1] = dog
[2] = single oral bolus, 10 g of the cyclic trimer

- blood level of ketone bodies (80 minutes after oral administration of diet containing 11 wt % of the trimer): 1.8 times of the normal level
- blood level of ketone bodies (150 minutes after oral administration of diet containing 11 wt % of the trimer): 2.4 times of the normal level
- blood ketone body level ([1]; meat with 23.5 g cyclic trimer four times over 9 hours, after the third administration (at 6 hours)): 30 times of the normal level
- blood hydroxybutyric acid level ([1]; meat with 23.5 g cyclic trimer four times over 9 hours, within 30 minutes from the first administration): about 50 times of the normal level
- highest blood hydroxybutyric acid level [1, 2]: more than 5 times of the normal level
- time of the highest blood hydroxybutyric acid level from the administration [1, 2]: 90 min
SMILES: C[C@@H]1CC(=O)O[C@H](C)CC(=O)O[C@H](C)CC(=O)O1 [cyclic trimer]
